Earlier results, collected in publication PMC8198792, “Prediction of Anticancer Peptides with High Efficacy and Low Toxicity by Hybrid Model Based on 3D Structure of Peptides” (International Journal of Molecular Sciences, 2021).
Where two headings read alike, the source gives them in different places.

Assays:
cancer cell lines = test system: cancer cell lines; parameters: method as in 6 sources, ref CancerPPD [45] and SATPdb ||| ref CancerPPD/SATPdb ||| ref CancerPPD, SATPdb, Swissprot (PDB) ||| ref CancerPPD/SATPdb/Swissprot(PDB) ||| ref CancerPPD / SATPdb ||| ...; conditions: cited from earlier work
Excerpt: Supplement ijms-22-05630-s001.zip/ACPs(seguence).xlsx, sheet "D1" | column: Activity || Supplement ijms-22-05630-s001.zip/ACPs(seguence).xlsx, sheet "D2" | column: Activity || Supplement ijms-22-05630-s001.zip/ACPs(seguence).xlsx, sheet "D3" | column: Activity || (+ 2 further places)

erythrocytes = conditions: cited from earlier work
Excerpt: Supplement ijms-22-05630-s001.zip/Hemloytic Peptides(seguence).xlsx, sheet "HD1" | column: Activity || Supplement ijms-22-05630-s001.zip/Hemloytic Peptides(seguence).xlsx, sheet "HD2" | column: Activity || Supplement ijms-22-05630-s001.zip/Hemloytic Peptides(seguence).xlsx, sheet "HD3" | column: Activity

[1] = ACPs dataset D1, 1 = ACP (positive), 0 = non-ACP (negative), label taken from databases, ref CancerPPD [45] and SATPdb
[2] = ACPs dataset D4 (sheet "D4"), label 1 = ACP (CancerPPD ID), 0 = non-ACP (non-anticancer AMP, SATPdb ID), ref CancerPPD [45] and SATPdb
[3] = hemolytic peptides dataset HD3, 1 = hemolytic (positive set), 0 = non-hemolytic (negative set), labels taken from databases, ref Hemolytik/SATPdb
[4] = natural hemolytic peptide dataset HD1, label collected from databases, ref Hemolytik [49], SATPdb [34]
[5] = ACPs dataset D1, label 1 = ACP, 0 = non-ACP (non-anticancer AMPs from SATPdb), ref CancerPPD/SATPdb
[6] = ACPs dataset D4 (sheet "D4"), label 1 = ACP, 0 = non-ACP, ref CancerPPD / SATPdb
[7] = ACPs dataset D3 (supplement sheet "D3"), 1 = ACP, 0 = non-ACP, ref CancerPPD [45] and SATPdb
[8] = ACPs dataset D5, sheet "D5", label 1 = ACP, 0 = non-ACP, ref CancerPPD [45] and SATPdb
[9] = ACPs dataset D3 (sheet "D3"), label 1 = ACP, 0 = non-ACP, ref CancerPPD/SATPdb
[10] = Hemolytic peptides dataset HD2, label 1 = hemolytic, 0 = non-hemolytic, ref Hemolytik/SATPdb

| Substance | Activity (erythrocytes; [3]) | Activity (cancer cell lines; [6]) | Activity (cancer cell lines; [8]) | Activity (erythrocytes) | Activity (cancer cell lines; [9]) | further results |
| --- | --- | --- | --- | --- | --- | --- |
| FPFSLIPHAIGGLISAIK [satpdb11349] | 1 |  |  |  |  | Activity (cancer cell lines; [1]): 0; Activity (cancer cell lines; [2]): 0; Activity (dataset HD1, hemolytic 1 / non-hemolytic 0) (erythrocytes; [4]): 1 |
| LALKSGGWLRLFGLKDKKH [satpdb12814] | 1 | 0 |  |  |  | Activity (cancer cell lines; [5]): 0; Activity (dataset HD1, hemolytic 1 / non-hemolytic 0) (erythrocytes; [4]): 1 |
| GWLDVAKKIGKAAFNVAKNFLFNKAVNFAAKGIKKAVDLWG [satpdb12864] | 1 | 0 |  |  |  | Activity (cancer cell lines; [5]): 0; Activity (dataset HD1, hemolytic 1 / non-hemolytic 0) (erythrocytes; [4]): 1 |
| FLPLIGRVLSGIA [satpdb10103] |  | 0 | 0 | 1 |  | Activity (cancer cell lines; [7]): 0 |
| ILPFKFPFPFRR [satpdb12286] |  | 0 | 0 | 1 | 0 |  |
| ILPWKWPWWPWRR [satpdb10356] | 1 | 0 | 0 |  |  | Activity (cancer cell lines; [7]): 0; Activity (erythrocytes; [10]): 1 |
| ILPFKFPFFPFRR [satpdb11100] | 1 | 0 | 0 |  |  | Activity (cancer cell lines; [7]): 0; Activity (erythrocytes; [10]): 1 |
| GRFKRFRKKFKKLFKKLSPVIPLLHL [satpdb13682] |  | 0 | 0 | 1 | 0 |  |
| LLIILKKKWKKQAKAKSK [satpdb13450] | 1 | 0 | 0 |  | 0 | Activity (erythrocytes; [10]): 1 |
| ALWFTMLKKLGTMALHAGKAALGAAANTISQGTQ [satpdb13357] |  | 0 |  | 1 |  | Activity (cancer cell lines; [5]): 0; Activity (dataset HD1, hemolytic 1 / non-hemolytic 0) (erythrocytes): 1 |
| KNLRRIIRKGIHIIKKYF [satpdb11799] |  |  |  | 1 |  | Activity (cancer cell lines; [5]): 0; Activity (cancer cell lines; [2]): 0; Activity (dataset HD1, hemolytic 1 / non-hemolytic 0) (erythrocytes): 1 |
| FLAGLIGGLAKMLGK [satpdb10461] |  |  |  | 1 |  | Activity (cancer cell lines; [1]): 0; Activity (cancer cell lines; [2]): 0; Activity (dataset HD1, hemolytic 1 / non-hemolytic 0) (erythrocytes): 1 |
| GLKEIFKAGLGSLVKGIAAHVAS [satpdb12238] |  |  |  | 1 | 0 |  |
| VSWKKSLGKIIKVVK [satpdb13183] | 1 | 0 | 0 |  | 0 | Activity (erythrocytes; [10]): 1 |
| GLLGPLLKIAAKVGKKLL [satpdb11754] |  | 0 | 0 | 1 |  | Activity (cancer cell lines; [7]): 0 |
| KKKKKKAAAAFWAAAAF [satpdb11398] |  | 0 | 0 | 0 |  | Activity (cancer cell lines; [7]): 0 |
| VNSKKISPKSIKVSK [satpdb10612] | 1 | 0 | 0 |  |  | Activity (cancer cell lines; [7]): 0; Activity (erythrocytes; [10]): 1 |
| RFGRFLRKIRRFRPKVTITIQGSARFG [satpdb11815] |  |  |  | 1 |  | Activity (cancer cell lines; [5]): 0; Activity (cancer cell lines; [2]): 0; Activity (dataset HD1, hemolytic 1 / non-hemolytic 0) (erythrocytes): 1 |
| KKVVFKVKFKK [satpdb13401] |  | 0 | 0 | 0 | 0 |  |
| ILPWKWPKLPWRR [satpdb13392] |  | 0 | 0 | 0 | 0 |  |
| KWFRVYRGIYRRR [satpdb13764] |  | 0 | 0 | 0 | 0 |  |
| LKKLLKWLKKL [satpdb13099] |  | 0 | 0 | 1 | 0 |  |
| RLKELITTGGQKIGEKIRRIGQRIKDFFKNLQPREEKS [satpdb11766] |  |  |  | 1 |  | Activity (cancer cell lines; [5]): 0; Activity (cancer cell lines; [2]): 0; Activity (dataset HD1, hemolytic 1 / non-hemolytic 0) (erythrocytes): 1 |

| Substance | Activity (erythrocytes; [3]) | Activity (cancer cell lines; [6]) | Activity (cancer cell lines; [8]) | Activity (erythrocytes) | Activity (cancer cell lines; [9]) | further results |
| --- | --- | --- | --- | --- | --- | --- |
| CGESCVFIPCISTLLGCSCKNKVCYRNGVIP [satpdb11124] | 1 |  |  |  |  | Activity (cancer cell lines; [5]): 0; Activity (cancer cell lines; [2]): 0; Activity (dataset HD1, hemolytic 1 / non-hemolytic 0) (erythrocytes; [4]): 1 |
| GLWDTIKQAGKKFFLNVLDKIRCKVAGGCRT [satpdb11099] | 1 |  |  |  |  | Activity (cancer cell lines; [1]): 0; Activity (cancer cell lines; [2]): 0; Activity (dataset HD1, hemolytic 1 / non-hemolytic 0) (erythrocytes; [4]): 1 |
| KWKKPLLKKLLKKL [satpdb12744] |  | 0 | 0 | 1 | 0 |  |
| GIGKFLHTLKTFGKKWVGEIMNS [satpdb13533] |  | 0 | 0 | 1 | 0 |  |
| VFQFLGKIIHHVGNFVHGFSHVF [satpdb12167] | 1 |  |  |  |  | Activity (cancer cell lines; [5]): 0; Activity (cancer cell lines; [2]): 0; Activity (dataset HD1, hemolytic 1 / non-hemolytic 0) (erythrocytes; [4]): 1 |
| IWRIFRRIFRIF [satpdb11167] | 1 | 0 | 0 |  |  | Activity (cancer cell lines; [7]): 0; Activity (erythrocytes; [10]): 1 |
| RRWPWWPWKWPLI [satpdb10003] |  | 0 | 0 | 1 |  | Activity (cancer cell lines; [7]): 0 |
| WLKKLLKKLLK [satpdb12765] |  | 0 | 0 | 1 | 0 |  |
| FLSLALAALPKLFCLIFKKC [satpdb10291] | 1 |  |  |  |  | Activity (cancer cell lines; [1]): 0; Activity (cancer cell lines; [2]): 0; Activity (dataset HD1, hemolytic 1 / non-hemolytic 0) (erythrocytes; [4]): 1 |
| GFMKYIKPLIPHAVKAIKKLI [satpdb12244] |  | 0 | 0 | 1 | 0 |  |
| KKKAAAFAAWAAFAKKK [satpdb11969] |  | 0 | 0 | 0 | 0 |  |
| ILPLKLPLLPWRR [satpdb11013] | 0 | 0 | 0 |  |  | Activity (cancer cell lines; [7]): 0; Activity (erythrocytes; [10]): 0 |
| AKKVFKRLEKLFSKIQNDK [satpdb11343] |  | 0 | 0 | 0 |  | Activity (cancer cell lines; [7]): 0 |
| CGESCVWIPCTITALAGCKCKSKVCYNSIP [satpdb10149] | 1 |  |  |  |  | Activity (cancer cell lines; [5]): 0; Activity (cancer cell lines; [2]): 0; Activity (dataset HD1, hemolytic 1 / non-hemolytic 0) (erythrocytes; [4]): 1 |
| VKLkVyPLKVKLyP [satpdb13685] |  | 0 | 0 | 1 | 0 |  |
| QLKVDLWGTRSGIQPEQHSSGKSDVRRWRSRY [satpdb10403] |  | 0 | 0 | 0 |  | Activity (cancer cell lines; [7]): 0 |
| QPTRRPRPGTGPGRRPRPRPRP [satpdb11920] |  |  |  | 0 |  | Activity (cancer cell lines; [5]): 0; Activity (cancer cell lines; [2]): 0; Activity (dataset HD1, hemolytic 1 / non-hemolytic 0) (erythrocytes): 0 |
| ILPKKKPWWPWRR [satpdb13640] |  | 0 | 0 | 1 | 0 |  |
| LLIILRRRWRKQAKAKSK [satpdb12920] |  | 0 | 0 | 1 | 0 |  |
| KWAKKWKWFAKAAWKWYKK [satpdb12565] | 1 | 0 | 0 |  | 0 | Activity (erythrocytes; [10]): 1 |
| KWKSFLKTFKSAKKTVLHTALKLISS [satpdb12569] |  | 0 | 0 | 1 | 0 |  |
| kklfkkILKYL [satpdb10342] | 0 | 0 | 0 |  |  | Activity (cancer cell lines; [7]): 0; Activity (erythrocytes; [10]): 0 |
| VKLKVyPLKvKLyP [satpdb12258] | 1 | 0 | 0 |  | 0 | Activity (erythrocytes; [10]): 1 |
